≈ marks a conversion by molar mass, not a printed value. Where a SMILES comes first, the peptide text is derived from it. [ ]: non-standard residue; d: D form.
Legend:
MRSA USA300 biofilms = test: Biofilm inhibition by >95% pure peptides (crystal violet), MRSA; assay type: cell-based, methicillin resistant Staphylococcus aureus; settings: for minimum inhibitory concentration of peptide that inhibited at least 90% of biofilm growth (MBIC90): MRSA USA300 biofilms, >95% pure peptides, 10% TSB + 0.1% glucose; for IC50: MRSA, 24 hours
MRSA preformed biofilms = test: Biofilm eradication of 24-hr preformed biofilms (TTC metabolic dye), MRSA; assay type: cell-based, methicillin resistant Staphylococcus aureus; settings: 24-hr preformed biofilms treated overnight
P. aeruginosa PAO1 [1] = test: MIC (broth microdilution) of peptides, P. aeruginosa; assay type: cell-based, Pseudomonas aeruginosa; settings: mode of three biological replicates
Experimental: (§1) Minimal inhibitory concentration (MIC) against planktonic bacteria: The MIC of the synthetic peptides was determined in Mueller-Hinton broth (MHB) using the broth microdilution method described previously [Wiegand, I., Hilpert, K., & Hancock, R. E. (2008). Agar and broth dilution methods to determine the minimal inhibitory concentration (MIC) of antimicrobial substances. Nature Protocols, 3(2), 163-175]. Briefly, 10 μl of a 10× concentrated peptide solution was placed in the bottom of a well in a 96-well polypropylene round bottom plate (Corning Inc.). A bacterial suspension of ~5×10^5 CFU/ml was prepared from an overnight culture and 90 μl of this was added to each well. […] Bacteria tested included P. aeruginosa PAO1, MRSA USA300 LAC, Staphylococcus haemolyticus, Staphylococcus epidermidis, Klebsiella pneumoniae and Streptococcus salivarius.
(§2) Finally, the AB103-D derivatives that were the least aggregation prone and which produced the lowest toxic effects in vivo were evaluated for their direct antibacterial activity towards several pathogens of clinical relevance using a standard minimum inhibitory concentration (MIC) assay [Wiegand, I., Hilpert, K., & Hancock, R. E. (2008). Agar and broth dilution methods to determine the minimal inhibitory concentration (MIC) of antimicrobial substances. Nature Protocols, 3(2), 163-175]. Specifically, peptides AB110-D, AB111-D, AB114-D and AB115-D were tested against P. aeruginosa PAO1, MRSA USA 300, Staphylococcus haemolyticus, Staphylococcus epidermidis, Klebsiella pneumoniae and Streptococcus salivarius and compared against the antibacterial activity of DJK-5 and AB103-D (Table 7). Overall, the antibacterial potency of all of the AB103-D derivatives was stronger than that seen for DJK-5, particularly in the case of the Gram-negative pathogens P. aeruginosa and K. pneumoniae. […]

MRSA USA 300 = test: MIC (broth microdilution) of peptides, MRSA; assay type: cell-based, methicillin resistant Staphylococcus aureus; settings: MRSA USA300; mode of three biological replicates
Experimental: as §1, §2

[2] = test system: Staphylococcus haemolyticus; test: MIC (broth microdilution) of peptides, S. haemolyticus; assay type: cell-based; settings: mode of three biological replicates
Experimental: as §1, §2

[3] = test system: Enterococcus faecium #2-1; test: Biofilm inhibition (at least 80%), E. faecium; assay type: cell-based; settings: E. faecium #2-1; n = 3; TSB + 1% glucose; 48 hours; crystal violet
MRSA USA300 = test: Biofilm inhibition (at least 80%), MRSA; assay type: cell-based, methicillin resistant Staphylococcus aureus; settings: n = 4, 10% TSB + 0.1% glucose, 18-24 hours, crystal violet
[4] = test system: Klebsiella pneumonia KPLN649; test: Biofilm inhibition (at least 80%), K. pneumonia; assay type: cell-based; settings: K. pneumoniae KPLN649; n = 3; BM2 minimal media; 48 hours; crystal violet
[5] = test system: Acinetobacter baumannii Ab5075; test: Biofilm inhibition (at least 80%), A. baumannii; assay type: cell-based; settings: n = 4, BM2 minimal media, 18-24 hours, crystal violet
P. aeruginosa PAO1 [6] = test: Biofilm inhibition (at least 80%), P. aeruginosa; assay type: cell-based, Pseudomonas aeruginosa; settings: n = 4, BM2 minimal media, 18-24 hours, crystal violet
[7] = test system: Enterobacter cloacae 218R1; test: Biofilm inhibition (at least 80%), E. cloacae; assay type: cell-based; settings: E. cloacae 218R1; n = 3; BM2 minimal media; 18-24 hours; crystal violet
E. coli O157:H7 = test: Biofilm inhibition (at least 80%), E. coli; assay type: cell-based, Escherichia coli; settings: n = 3, BM2 minimal media, 18-24 hours, crystal violet
P. aeruginosa LESB58 = test: Murine model of abscess infections; assay type: in vivo, murine; Pseudomonas aeruginosa
[8] = Peptide aggregation in RPMI + 10% FBS with PBMCs (microscopy); assay type: physicochemical; settings: 50 μg/ml, overnight
In short: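 Peptides added to human PBMCs in RPMI with 10% FBS, incubated overnight at 37 °C, 5% CO2; aggregation assessed qualitatively by inverted light microscopy at 10× magnification.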

[9] = test system: P. aeruginosa PAO1 biofilms; settings: for minimum inhibitory concentration of peptide that inhibited at least 90% of biofilm growth (MBIC90): P. aeruginosa PAO1 biofilms, >95% pure peptides, BM2 minimal media; for minimum inhibitory concentration of peptide that inhibited at least 90% of biofilm growth (MBIC90) / IC50: crystal violet; for IC50: read-out: Biofilm Inhibition IC50, PAO1, 24 hours

SMILES	minimum inhibitory concentration of peptide that inhibited at least 90% of biofilm growth (MBIC90) (MRSA USA300 biofilms) [µM]	IC50 (MRSA USA300 biofilms) [µM]	IC50 (MRSA preformed biofilms) [µM]	MIC (P. aeruginosa PAO1 [1]) [µg/mL]	MIC (MRSA USA 300) [µg/mL]	MIC [2] [µg/mL]	Peptide/Antibiotic Concentration where at least 80% of biofilm growth was inhibited [3] [µg/mL]	Peptide/Antibiotic Concentration where at least 80% of biofilm growth was inhibited (MRSA USA300) [µg/mL]	Peptide/Antibiotic Concentration where at least 80% of biofilm growth was inhibited [4] [µg/mL]	Peptide/Antibiotic Concentration where at least 80% of biofilm growth was inhibited [5] [µg/mL]	Peptide/Antibiotic Concentration where at least 80% of biofilm growth was inhibited (P. aeruginosa PAO1 [6]) [µg/mL]	Peptide/Antibiotic Concentration where at least 80% of biofilm growth was inhibited [7] [µg/mL]	Peptide/Antibiotic Concentration where at least 80% of biofilm growth was inhibited (E. coli O157:H7) [µg/mL]	Abscess size (P. aeruginosa LESB58)	Decrease in abscess formation (P. aeruginosa LESB58) [%]	Peptide aggregation [8]	Biofilm inhibition activity compared to DJK5 ([9]; P. aeruginosa) [fold]	minimum inhibitory concentration of peptide that inhibited at least 90% of biofilm growth (MBIC90) [9] [µM]	IC50 [9] [µM]
CC[C@@H](C)[C@@H](NC(=O)[C@@H](C)NC(=O)[C@@H](CCCNC(=N)N)NC(=O)[C@@H](Cc1c[nH]c2ccccc12)NC(=O)[C@@H](CCC(N)=O)NC(=O)[C@H](NC(=O)[C@@H](CCCNC(=N)N)NC(=O)[C@H](NC(=O)[C@H](NC(=O)[C@@H](CCCNC(=N)N)NC(=O)[C@H](NC(=O)[C@H](N)CCCNC(=N)N)C(C)C)C(C)C)[C@H](C)CC)C(C)C)C(N)=O [AB103-D, rvrvirvqwrai-NH2] (H-[dR][dV][dR][dV][dI][dR][dV][dQ][dW][dR][dA][dI]-NH2)	1	0.34	2.2	2 (≈ 1.29 µM)	0.8 (≈ 0.516 µM)	0.8 (≈ 0.516 µM)	1	0.5	2	1	2	1	1	reduced abscess size	77	some small aggregates	≥ 4	8	1.9
CC[C@@H](C)[C@@H](NC(=O)[C@@H](C)NC(=O)[C@@H](CCCNC(=N)N)NC(=O)[C@@H](Cc1c[nH]c2ccccc12)NC(=O)[C@@H](CCC(N)=O)NC(=O)[C@H](N)C(C)C)C(=O)N[C@H](CCCNC(=N)N)C(=O)N[C@@H](C(=O)N[C@H](CCCNC(=N)N)C(=O)N[C@@H](C(=O)N[C@@H](C(=O)N[C@H](CCCNC(=N)N)C(N)=O)[C@H](C)CC)C(C)C)C(C)C [DJK5, vqwrairvrvir-NH2] (H-[dV][dQ][dW][dR][dA][dI][dR][dV][dR][dV][dI][dR]-NH2)	0.5	0.35	1.6	6 (≈ 3.87 µM)	0.8 (≈ 0.516 µM)	0.8 (≈ 0.516 µM)	1	1	8	2	8	2	1	–	54	No appreciable aggregation	–	16	7.4
